One data set concerns Caco-2 cells. The data set can be described thus: Permeability and transporter substrate evaluation in Caco-2 monolayer. The data set is classed as in vitro ADME. The procedure: • Cell: Caco-2 cells • Instruments: water purification instrument, ELGA Lab Wate; biosafety cabinet, NUAIRE; thermostatic CO2 incubator, Thermo; microplate reader, PerkinElmer; LC-MS/MS, AB SCIEX. • Method: A Caco-2 monolayer cell model was used to determine the two-way permeability of the test substance and evaluate whether the test substance was transported via efflux by a transporter. In the experiment, Caco-2 cells were seeded into a 96-well cell culture plate and cultured for 28 consecutive days before a transport assay. The test substance was administered on two sides. After 120 min of incubation, samples of apical end A, basal end B, and the cell lysate were collected, and the content of the test substance in the samples was quantitatively determined using a liquid chromatography-tandem mass spectrometry (LC/MS/MS) method. The apparent permeability coefficients (Papp) in the direction from the apical end to the basal end (A-B) and in the direction from the basal end to the apical end (B-A) and the efflux ratio were calculated based on the concentration of the test substance.
For orientation: Passage across Caco-2 layers is used to estimate intestinal permeability.

The target of data set [1] is T1, human GnRHR (Homo sapiens, UniProt P30968).
T1 sequence (P30968 1-328): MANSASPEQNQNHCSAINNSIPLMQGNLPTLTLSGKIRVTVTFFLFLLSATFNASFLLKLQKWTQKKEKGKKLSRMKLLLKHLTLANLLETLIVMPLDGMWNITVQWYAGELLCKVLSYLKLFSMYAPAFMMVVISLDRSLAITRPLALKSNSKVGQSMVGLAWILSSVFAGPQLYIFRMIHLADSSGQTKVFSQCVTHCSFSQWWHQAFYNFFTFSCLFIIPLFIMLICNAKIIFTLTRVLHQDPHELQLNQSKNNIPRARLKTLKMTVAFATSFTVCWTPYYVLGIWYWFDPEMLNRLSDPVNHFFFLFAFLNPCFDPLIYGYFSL
Nature of the data set: In vitro antagonistic activity screening (FLIPR calcium fluorescence, leuprolide acetate stimulation). The data set is classed as cell-based. The protocol:
• Cell: HEK293 cells stably expressing human GnRHR (WuXi AppTec (Shanghai) Co., Ltd.) • Equipment: 384-well plate, Greiner; Vi-cell XR Cell Viability Analyzer, Beckman Coulter; incubator, Thermo. • Method: HEK293 cells stably expressing human GnRHR were seeded into a 384-well plate at a density of 20,000 cells/well. Fluo-4 Direct™ No-wash Loading Buffer (Invitrogen) was added to each well the next day, and then the plate was put back into an incubator, incubated at 37° C. for 50 min, and then incubated at room temperature for 10 min. […] Fluorescence was measured using a FLIPR Tetra high-throughput real-time fluorescence assay and analysis system. Then 10 μL of Leuprolide acetate was added, and fluorescence was measured. The IC50 and IC90 of the compound were calculated using Prism.

The target in data set [2] is T2, human hERG potassium channel (Homo sapiens, UniProt Q12809).
T2 construct: host or cells: CHO
Nature of the data set: hERG test (QPatch automated patch clamp, CHO cells). It counts as cell-based. The protocol: • Cell: CHO cells stably expressing a human hERG potassium channel (WuXi AppTec (Shanghai) Co., Ltd.) • Reagents: physiological solution (PH=7.4): 140 mM NaCl, 4 mM KCl, 2 mM CaCl2), 1 mM MgCl2, 5 mM glucose, 10 mM HEPES, osmolarity: about 298 mOsm; external solution (PH=7.4): 80 mM NaCl, 4 mM KCl, 2 mM CaCl2, 1 mM MgCl2, 5 mM glucose, 60 mM NMDG, 10 mM HEPES, osmolarity: about 289 mOsm; and internal solution (PH=7.4): 10 mM NaCl, 10 mM KCl, 110 mM KF, 10 mM HEPES, EGTA: […], osmolarity: about 280 mOsm. • Equipment: QPatch high-throughput automated patch clamp system, Sophion. • Method: CHO cells stably expressing a human hERG potassium channel were digested with TrypLE and resuspended in the physiological solution for later use. The single-cell high-impedance sealing and whole-cell mode formation processes were automatically completed by Qpatch. The cells were clamped at a voltage of −80 mV, then a voltage of −50 mV was applied for 80 ms to subtract (current) leakage, and a voltage of +20 mV was applied for 4800 ms to open the hERG channel. The voltage was then reduced to −50 mV and maintained for 5000 ms. This process was used for data collection and analysis. Finally, the voltage was returned to the clamping voltage (−80 mV, 1000 ms). This process was repeated every 20,000 ms. […]

Data set [3] can be described thus: Pituitary tissue distribution in SD rats after intragastric administration. The data set is classed as in vivo. Particulars: i.g 12 mg/kg; for Plasma concentration: in ng/mL (unit assumed). The protocol:
(§1) • Rats: SD rats, male, 200-250 g • Instruments: water purification instrument, Millipore; electronic balance, METTLER TOLEDO; high-speed benchtop centrifuge, Thermo; water bath thermostatic oscillator, Shanghai Yiheng Technical Co., Ltd.; vortex oscillator, Thermo; LC-MS/MS, AB SCIEX. • Method: Solutions of all compounds were prepared using DMSO and 20% solutol. In the pharmacokinetic experiment, the administration dose for the intravenous group (i.v) was 1 mg/kg, and the administration dose for the intragastric group (i.g) was 12 mg/kg; each group contained 3 rats. Blood was collected from the orbit of the rats before administration (0 h) and at set time points after administration. In the tissue distribution experimental group, the rats were intragastrically dosed at 12 mg/kg. […] in a heparinized EP tube and centrifuged at 13,500 rpm for 10 min to isolate the plasma. The pituitary was homogenized with water in a certain ratio. The plasma and pituitary homogenates were pre-treated and then analyzed by LC-MS/MS to determine the concentrations of the test substances in the plasma and the pituitary. The plasma drug concentration data were processed in a non-compartmental model using WinNonlin™ Version 6.3 (Pharsight, Mountain View, CA) pharmacokinetic software.

Data set [4] in a line: In vivo pharmacokinetics in SD rats. Conditions: intragastric administration group. The protocol: as §1
Data set [5] deals with T1, human GnRHR. The data set can be described thus: In vitro binding screening ([125I]-[D-Trp6]-LH-RH displacement, Chem-1 cell membrane). Also on record: host or cells: Chem-1 cells (membrane preparation). The procedure: 1 μM [D-Trp6]-LH-RH was used in the non-specific binding assay. The cell membrane was collected by filtration under vacuum and washed before liquid scintillation. The binding IC50 and IC90 of the compound were calculated using Prism.

T2 sequence (Q12809 whole entry): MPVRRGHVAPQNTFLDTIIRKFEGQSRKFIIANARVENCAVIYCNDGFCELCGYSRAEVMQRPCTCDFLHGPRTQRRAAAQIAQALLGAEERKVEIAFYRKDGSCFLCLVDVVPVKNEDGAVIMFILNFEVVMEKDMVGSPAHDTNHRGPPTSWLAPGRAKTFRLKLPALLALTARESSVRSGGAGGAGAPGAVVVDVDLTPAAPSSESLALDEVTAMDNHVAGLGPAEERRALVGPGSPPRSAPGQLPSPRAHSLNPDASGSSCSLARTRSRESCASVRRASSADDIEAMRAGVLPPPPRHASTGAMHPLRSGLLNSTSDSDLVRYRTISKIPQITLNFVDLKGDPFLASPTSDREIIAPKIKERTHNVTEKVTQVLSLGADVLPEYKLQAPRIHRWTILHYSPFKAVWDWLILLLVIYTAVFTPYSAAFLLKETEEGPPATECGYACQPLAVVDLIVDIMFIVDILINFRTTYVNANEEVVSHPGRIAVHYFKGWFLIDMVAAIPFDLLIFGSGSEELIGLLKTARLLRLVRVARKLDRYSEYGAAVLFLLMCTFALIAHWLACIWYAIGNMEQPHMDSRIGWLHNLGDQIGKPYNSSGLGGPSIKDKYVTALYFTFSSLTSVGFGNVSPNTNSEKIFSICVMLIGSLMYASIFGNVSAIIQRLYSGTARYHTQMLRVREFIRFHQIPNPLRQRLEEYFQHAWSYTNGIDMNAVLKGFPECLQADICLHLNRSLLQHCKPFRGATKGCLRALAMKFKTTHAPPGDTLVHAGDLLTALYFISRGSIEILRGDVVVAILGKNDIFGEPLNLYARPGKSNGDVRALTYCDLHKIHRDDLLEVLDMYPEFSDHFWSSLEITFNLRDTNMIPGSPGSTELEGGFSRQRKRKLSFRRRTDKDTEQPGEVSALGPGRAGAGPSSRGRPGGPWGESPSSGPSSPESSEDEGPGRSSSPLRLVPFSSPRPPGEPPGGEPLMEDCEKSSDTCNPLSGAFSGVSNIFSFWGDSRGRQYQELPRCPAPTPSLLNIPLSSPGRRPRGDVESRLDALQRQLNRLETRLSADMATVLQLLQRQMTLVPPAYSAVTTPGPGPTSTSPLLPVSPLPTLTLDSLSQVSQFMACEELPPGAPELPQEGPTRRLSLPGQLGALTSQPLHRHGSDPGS

For the molecule `CCNC(=O)Nc1ccc(-c2sc3c(c2CN(C)C)c(=O)n(-c2ccc(OC)nn2)c(=O)n3Cc2c(F)cccc2F)cn1` [Formula I], in the data set with Caco-2 cells, the “Efflux ratio (conclusion)” value is listed as “relatively low efflux ratio”. Besides, the “Inhibitory effect on human GnRHR (conclusion)” value at human GnRHR [1] is listed as “significant inhibitory effect”. Also, the “Inhibitory activity against the human hERG potassium channel (conclusion)” value in data set [2] is reported as “relatively low inhibitory activity”. Besides, the Pituitary concentration amounted to 2250 ± 474 in data set [3] (1 h), 1841 ± 636 in data set [3] (4 h) and 1254 ± 494 in data set [3] (12 h). The Plasma concentration in data set [3] (1 h) was determined as 39.5 ± 14.0; in data set [3] (4 h), 22.8 ± 2.5; in data set [3] (12 h), 9.70 ± 3.10. For the same molecule, the “Absolute bioavailability relative to Relugolix” value in data set [4] was 3.47 times. Moreover, the “Binding ability to human GnRHR (conclusion)” value at human GnRHR [5] is given as “significant binding ability”.

The values are drawn from patent publication US20260285874A1, “SALT FORM AND CRYSTAL FORM OF THIENOPYRIMIDINE COMPOUND, AND PREPARATION METHOD THEREFOR AND USE THEREOF” (SHANDONG LUYE PHARMACEUTICAL CO., LTD., priority 2023, published 2026).
